Measured values published in patent US7892764B2, “System for seizure suppression” (priority 2006, dated 2011).

Assays:
Format in all cases: cell-based
ASIC current [1] = target: T1, ASIC current (Mus musculus, UniProt Q6NXK8); assay: Acid-induced (pH 6.0) ASIC current in mouse cortical neurons, patch-clamp recording; conditions: read-out: IC50 (concentration at 50% inhibition) of ASIC current amplitude; pH drop 7.4 to 6.0, holding potential −60 mV
T1 sequence (Q6NXK8 1-526): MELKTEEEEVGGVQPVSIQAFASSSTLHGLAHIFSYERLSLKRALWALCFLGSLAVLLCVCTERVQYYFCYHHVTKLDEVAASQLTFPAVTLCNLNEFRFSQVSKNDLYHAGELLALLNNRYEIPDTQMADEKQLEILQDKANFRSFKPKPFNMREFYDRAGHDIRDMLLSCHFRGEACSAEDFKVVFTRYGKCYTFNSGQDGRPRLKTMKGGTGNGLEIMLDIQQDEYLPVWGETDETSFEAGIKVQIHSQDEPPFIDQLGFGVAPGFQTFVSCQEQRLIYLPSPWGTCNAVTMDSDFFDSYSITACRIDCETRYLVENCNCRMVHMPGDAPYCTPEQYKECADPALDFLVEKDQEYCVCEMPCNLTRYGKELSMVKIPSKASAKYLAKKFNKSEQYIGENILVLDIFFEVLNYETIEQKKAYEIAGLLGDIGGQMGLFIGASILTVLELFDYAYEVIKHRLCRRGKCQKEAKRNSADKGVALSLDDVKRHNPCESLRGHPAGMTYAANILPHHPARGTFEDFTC
Description: Mouse cortical neurons in culture were monitored electrophysiologically by patch-clamp recording of current at a holding potential of −60 mV. An ASIC current was induced at this holding potential by dropping the extracellular pH from physiological pH (pH 7.4) to pH 6.0, in the presence of different concentrations of benzamil (FIG. 11) or EIPA (FIG. 12). The current traces obtained are presented in the upper part of FIGS. 11 and 12. […] Therefore, amiloride derivatives inhibit ASIC channel activity and may be used for seizure suppression in subjects prone to seizures and/or having a seizure.

ASIC current [2] = assay: Effect of antiepileptic agents on ASIC current activated by pH drop from 7.4 to 6.0 in isolated neurons
Description: Activation of ASICs may be involved in increased neuronal excitability and thus seizure generation. Inhibition of ASICs, on the other hand, is expected to be antiepileptic. To test this hypothesis further, we performed a study to examine the effect of currently available antiepileptic agents—particularly those agents for which the mechanism of action is not fully understood—on ASIC currents. We suspected that some of the current antiepileptic agents may, in fact, exert their antiepileptic effect partially through their inhibition of an ASIC current. Three commonly used antiepileptic agents were tested on an ASIC current activated by a pH drop from 7.4 to 6.0. […] Perfusion of lamotrigine (1 mM), however, inhibited the current by 43±13% (n=3, p<0.05, FIG. 15B), whereas perfusion of 1 mM felbamate reduced the amplitude of the ASIC current by nearly 60% (n=3. FIG. 15C).

mouse hippocampal slices = assay: Low Mg2+-induced epileptiform bursting activity (evoked and spontaneous) in hippocampal slices; conditions: 200 ng/mL PcTX1 venom or 20 nM synthetic PcTX1, absence of Mg2+
Procedure: Limbic seizures (Avoli et al., 2002) are modeled by removing Mg^2+ from artificial cerebral spinal fluid (aCSF) in slices of hippocampal-entorhinal cortex, which triggers interictal-like bursting activity, or spontaneous ictal-like events (Wong et al., 2001; Anderson et al., 1986). In the presence of normal Mg^2+ (1.5 mM), stimulation of Schaffer collaterals induces single population spike or EPSP in the CA1 region of the hippocampus. […] Perfusion with Mg^2+-free aCSF for about 30 min evoked synchronous burst firing with the same stimulation intensity. In about, 30% of the slices, spontaneous clustered bursts developed in the absence of electrical stimulation. Bath perfusion of amiloride or PcTX1 for 10 min reduced the amplitude and frequency of evoked bursting activity (FIGS. 5A and 5B). Amiloride (100 μM) reduced the amplitude of the first and the second population spikes (from 1.2±0.2 mV to 0.5±0.2 mV and 0.6±0.03 mV to 0.2±0.05 mV, respectively (n=9: p<0.01, FIGS. 5A and 5B), and the number of population spikes (from 4.7±0.6 to 3.3±0.8, n=9, p<0.05)). Similarly, PcTX1 (200 ng/mL) attenuated the amplitude of the population spike (from 2.1±0.3 to 1.6±0.2 mV, n=9, p<0.05) and the number of spikes (from 4.2±0.6 to 3.0±0.6, p<0.05).
Preparation of hippocampal slices and brain slice recording. Hippocampal slices were obtained from 8- to 10-week-old mice. The protocol for brain-slice recording was approved by the Institutional Animal Care and Use Committee of Legacy Research. Animals were deeply anesthetized with isoflurane and decapitated. Brains were quickly removed and placed in ice-cold solution that contained: 125 mM sucrose, 2.5 mM KCl, 26 mM NaHCO3, 1.25 mM NaHPO4, 6.0 mM […], 0.5 mM CaCl2, and 10 mM glucose, and was saturated with 95% O2 and 5% CO2 (pH 7.4). Hippocamnpal slices were cut in 400 μm thickness in transverse plane with a vibratome (Leica VT 1000S) and placed in a slice holding chamber (BSC-PC Prechamber, Warner Instrument) and incubated in normal artificial cerebral spinal fluid (aCSF) that contained: 125 mM NaCl, 2.5 mM KCl, 26 mM NaHCO3, 1.25 mM […], 1.0 mM MgSO4, 2.0 mM CaCl2, and 10 mM glucose, and was saturated with 95% O2 and 5% CO2 (pH 7.4).
Following ˜60 min of incubation at room temperature, individual slices were transferred to a submerged slice chamber with a volume of 0.5 mL (Warner Instruments, Hamden, Conn.) and perfused with oxygenated aCSF (35° C.) at a rate of 3-4 mL/min. Recording electrodes were pulled from borosilicate glass and filled with aCSF. The population spike and the field excitatory postsynaptic potentials (fEPSP) were recorded in stratum pyramidale and striatum radiatum of hippocampal CA1 region, by stimulating Schaffer Collaterals.
For low Mg^2+ induced epileptic burst activity, Mg^2+-free aCSF was perfused to the slices for ˜30 min. For stimulus-train induced bursting discharges (STIB), each stimulation train consisted of 120 pulses at 60 Hz and each pulse was 100 μsec in duration (Stasheff et al., 1985). A 10-minute interval of non-stimulation was provided between successive trains of high frequency stimulation. Stimulation electrodes were located in striatum radiatum between CA1 and CA3 region. The population spikes were recorded from striatum pyramidale of the CA3 region.
Pharmacological and electrical bursting models. To induce epileptic burst discharges, Mg^2+-free aCSF was applied. Mg^2+-free aCSF was obtained by simply omitting MgSO4 from aCSF.

ASICs = target: T2, ASICs (Mus musculus, UniProt Q6NXK8); assay: Acid (pH 7.0/7.1)-induced membrane depolarization and neuronal firing, current-clamp recording; conditions: pH 7.0; amiloride 100 μM or synthetic PcTX1 20 nM
T2 construct: Primary neuronal cultures were prepared from embryonic Swiss mice at 15 to 16 days of gestation; endogenous in cells
T2 sequence (Q6NXK8 1-526): T1 sequence (Q6NXK8 1-526)
Description: Unlike ischemia, only moderate pH changes (e.g., ˜0.3 pH unit) are reported in brain parenchyma during seizures (Chesler et al., 1988: Chesler et al., 1992), although pH in the synaptic cleft may be much lower (Chesler et al., 1992; Wemmie et al., 2006). […] One possibility is that voltage-clamp recording has relatively low sensitivity to resolve small current in whole-cell configuration. To provide more evidence that the decreases of pHo to the level seen in epilepsy can indeed activate the ASICs and cause neuronal excitation, we have also used current-clamp recording to study changes of membrane depolarization and neuronal firing by small changes of pHo. Due to the large input resistance of most CNS neurons (e.g., ˜500 MΩ), even a small membrane current (e.g., 10-20 pA, which is difficult to resolve in voltage-clamp recording in general) can induce significant membrane depolarization in current-clamp conditions. Mouse cortical neurons were used for current-clamp recordings 14 days after the culture.
Cortical neuronal culture. Primary neuronal cultures were prepared from embryonic Swiss mice at 15 to 16 days of gestation according to our previously described techniques (Xiong et al., 2004). In brief, cerebral cortices from 10 to 12 embryos were dissected and incubated with 0.05% trypsin-EDTA for 10 min, dissociated by trituration with a fire-polished glass pipette, and plated on poly-L-ornithine-coated culture dishes at a density of 0.5×10^6 cells per dish. Neurons were cultured with Neurobasal medium supplemented with B27 (Invitrogen). The cultures were maintained at 37° C. in a humidified 5% CO2 atmosphere incubator and were used for experiments after 12-14 days.
Patch clamp techniques. Whole-cell voltage-clamp and current-clamp recordings were performed as described in our previous studies (Xiong et al., 2004). […] Whole-cell currents were recorded using Axopatch 200B amplifiers with pCLAMP software (Axon Instruments, CA, USA). […]

CCN(c1nc(N)c(C(=O)N=C(N)N)nc1Cl)C(C)C [EIPA, 5-(N-ethyl-N-isopropyl)-amiloride]
IC50 (ASIC current [1]): ~20 µM

CCC1(C)CC(=O)NC1=O (stereo not shown) [ethosuximide]
effect on amplitude of the ASIC current (ASIC current [2]; 1 mM, bath application 5 min, pH drop from 7.4 to 6.0): did not affect

NC(=O)OCC(COC(N)=O)c1ccccc1 [felbamate]
inhibition of ASIC current amplitude (ASIC current [2]; 1 mM, pH drop from 7.4 to 6.0): ~60%

Nc1nnc(-c2cccc(Cl)c2Cl)c(N)n1 [lamotrigine]
effect on desensitization of the ASIC current (ASIC current [2]): enhances the desensitization
inhibition of ASIC current amplitude (ASIC current [2]; 1 mM, pH drop from 7.4 to 6.0): 43±13%

synthetic PcTX1: chemically synthesized PcTX1 peptide, used at 20 nM
effect on frequency of spontaneous clustered bursting activity (mouse hippocampal slices): reduced the frequency
effect on acid-induced neuronal excitation (membrane depolarization, firing rate) (ASICs): largely and significantly reduced
